We go through 1 compound from patent publication US8969298B2, “Liquid preparation of physiologically active peptide” (Daiichi Sankyo Co., Ltd., priority 2004, dated 2015).

A short description of data set [1]: Pharmacokinetics of ghrelin preparations intravenously or subcutaneously administered to cynomolgus monkeys (plasma ghrelin by ELISA). As to conditions: cynomolgus monkey, in vivo, sc, read-out: BA of subcutaneously injected ghrelin. On the procedure: Preparations No. 5 and No. 33 were subcutaneously administered to separate groups of cynomolgus monkeys and the plasma ghrelin levels were measured. Furthermore, Preparation No. 1 was intravenously administered to another group of cynomolgus monkeys. The plasma ghrelin levels were measured.
Each group consisted of three male monkeys (imported from China) aged 4 to 6 years. Preparations No. 5 and No. 33 were subcutaneously injected in the dorsal skin at a dose of 0.2 mL/body using a syringe and a 26 G needle (each available from Terumo Co., Ltd.).
Using a syringe and a 26 G needle (each available from Terumo Co., Ltd.), Preparation No. 1 was intravenously injected in the forearm vena cephalica at a dose of 2 mL/kg.
In each case, blood samples were collected from the forearm vena cephalica before administration and 5, 10, 15, 30, 40, 60, 90, and 120 minutes after administration. […]
The plasma samples were then analyzed for the ghrelin levels by Enzyme-Linked Immunosolvent Assay (ELISA) using Active Ghrelin ELISA Kit (Cat. No. MM-401, Mitsubishi Kagaku latron Inc.). […]
The results shown in FIG. 7 were used to determine Cmax and Tmax for each liquid preparation. Using the trapezoidal method, the AUC was also calculated for each preparation. […]

Data set [2] in a line: Pharmacokinetics of human ghrelin preparations intravenously, subcutaneously or intramuscularly administered to rats (plasma ghrelin by RIA). It is filed as in vivo. As to conditions: s.c. On the procedure: 7-week old, male SD rats (Charles River Laboratories Japan Inc.) were used. A group of three rats was used for the tests. For intravenous administration, these animals each inserted a polyethylene tube (PE-50, Clay Adams Co., Ltd.) in the femoral artery were used. Preparation No. 2 was administered through the tail vain at a dose of 0.5 mL/kg by using a syringe and a 26 G needle (each available from Terumo Co., Ltd.). Blood samples were collected from the polyethylene tube in the femoral artery before administration and 1, 3, 5, 10, 20, 30, 60, and 90 minutes after administration.
Similarly, these animals inserted a polyethylene tube in the femoral artery were used for subcutaneous administration of Preparation No. 3 in the dorsal skin at a dose of 1 mL/kg using a syringe and a 26 G needle. Blood samples were collected from the polyethylene tube in the femoral artery before administration and 5, 10, 20, and 30 minutes after administration.
To each sample, one-hundredth as much of an EDTA.2Na.2H2O solution and one-fiftieth as much of an AEBSF solution were added immediately after collection of the sample. […]
The plasma samples were then analyzed for the ghrelin levels by radioimmunoassay (RIA) using an anti-ghrelin antibody. […] The supernatant was separated and analyzed for radioactivity by a γ-counter (Packard Instruments Co., Ltd.).
The results shown in FIG. 1 were used to determine the following pharmacokinetic parameters for each injection route: the maximum plasma ghrelin concentration (Cmax) and the time it took before the maximum plasma concentration was reached (T). […] Using the trapezoidal method, the area under the concentration curve (AUC) was also calculated for each injection route. […]
As with the examples of subcutaneous administration, these rats, inserted a polyethylene tube in the femoral artery, were intramuscularly administered Preparations No. 3 and No. 13 in the femoral muscle at a dose of 1 mL/kg, using a syringe and a 26 G needle. The blood samples were collected in the same manner as in Comparative Example 2 and the plasma ghrelin levels were measured by RIA method.

`CCCCCCCC(=O)OC[C@H](NC(=O)[C@H](CO)NC(=O)CN)C(=O)N[C@@H](Cc1ccccc1)C(=O)N[C@@H](CC(C)C)C(=O)N[C@@H](CO)C(=O)N1CCC[C@H]1C(=O)N[C@@H](CCC(=O)O)C(=O)N[C@@H](Cc1cnc[nH]1)C(=O)N[C@@H](CCC(N)=O)C(=O)N[C@@H](CCCNC(=N)N)C(=O)N[C@H](C(=O)N[C@@H](CCC(N)=O)C(=O)N[C@@H](CCC(N)=O)C(=O)N[C@@H](CCCNC(=N)N)C(=O)N[C@@H](CCCCN)C(=O)N[C@@H](CCC(=O)O)C(=O)N[C@@H](CO)C(=O)N[C@@H](CCCCN)C(=O)N[C@@H](CCCCN)C(=O)N1CCC[C@H]1C(=O)N1CCC[C@H]1C(=O)N[C@@H](C)C(=O)N[C@@H](CCCCN)C(=O)N[C@@H](CC(C)C)C(=O)N[C@@H](CCC(N)=O)C(=O)N1CCC[C@H]1C(=O)N[C@@H](CCCNC(=N)N)C(=O)O)C(C)C` [ghrelin]: the bioavailability in data set [1] is at most 3%. Also, in data set [2], the “BA of subcutaneously injected ghrelin” value is on record as “at most 5%”. Also, the BA of ghrelin was 35.3% in data set [2] (mixed with sodium acetate buffer (pH 4.0)) and 3.4% in data set [2] (mixed with urea as a solubilizing agent).
